Assay results reported in patent publication US20250326744A1, “PIPERAZINE DERIVATIVE OR SALT THEREOF, AND PHARMACEUTICAL COMPOSITION” (priority 2022, published 2025).
Where a name gives a salt, the structure may show the parent alone.

Key:
mexY (EC) strain = assay: Efflux ability inhibition effect on drug efflux pump MexY (Test Examples 1 and 3): proliferation (OD595) of mexY (EC) strain with EM or LVFX at 1/4 MIC, EC75; type: cell-based, Escherichia coli; conditions: for EC75, mexY (EC) strain, EM: combined with EM at 1/4 MIC; for EC75, mexY (EC) strain, LVFX: combined with LVFX at 1/4 MIC
Method: The efflux ability inhibition effect of the test compound on the drug efflux pump was evaluated using the bacterial proliferative ability in the presence of EM or LVFX as an index.
EM is a macrolide antibacterial agent and is a drug that is discharged outside the bacteria by MexB and MexY LVFX is a quinolone antibacterial agent and is a drug that is discharged outside the bacteria by MexB and MexY In a case where the test compound has an efflux ability inhibitory ability against the drug efflux pump, the proliferation of bacteria is suppressed by the combined use of EM or LVFX and the test compound, as compared with the case where EM or LVFX is used alone.
A mutant strain (hereinafter, referred to as an “mexB (EC) strain”) obtained by transferring the genes of the main multidrug efflux system MexAB-OprM of Pseudomonas aeruginosa described in Nature, 2013, Vol. 500, pp. 102 to 106 as a plasmid into Escherichia coli strains in which the acrB and tolC genes of the multidrug efflux system AcrAB-TolC were deleted as described in Journal of Infection and Chemotherapy 2008, Vol. 14, pp. 23 to 29, and a gene transfer strain (hereinafter, referred to as an “mexY (EC) strain”) of another main multidrug efflux system MexXY-OprM of Pseudomonas aeruginosa were used for the evaluation of test compounds.
In the mexB (EC) strain, an expression level of MexB of the drug efflux pump is accelerated, and in the mexY (EC) strain, an expression level of MexY of the drug efflux pump is accelerated.
For culturing each Escherichia coli strain, a 96-well plate (amount of culture medium per well: 100 μL) was used and Luria-Bertani broth (LB) culture medium was used. The inoculation amount of the bacteria was set to 10^4 to 5 CFU/well.
The mexB (EC) strain and the mexY (EC) strain were cultured for 16 to 20 hours in a culture medium to which EM or LVFX and test compounds at various concentrations (0 to 800 μM) were added, and the proliferation of the bacterial strains was evaluated by optical turbidity at 595 nm (OD595). The concentration of the antibacterial agents (EM and LVFX) in the culture medium were each set to ¼ of the minimum inhibitory concentration (MIC) (hereinafter, referred to as ¼ MIC) of the single antibacterial agent.
The proliferation of bacteria in a case where the antibacterial agent was added at the concentration of ¼ MIC in a case where the test compound was not added was measured, and compared with the proliferation of bacteria in a case where the test compound was contained, and the lowest concentration of the test compound at which the proliferation was inhibited by 75% or more was defined as the drug efflux pump inhibitory ability of the test compound as 75% inhibitory effect concentration (EC75).
The drug efflux pump inhibitory ability of each test compound in a case of being used in combination with the antibacterial agent against the mexB (EC) strain and the mexY (EC) strain was evaluated as follows according to the value of EC75. • S: EC75≤[…] • A: 12.5 μM<EC75≤25 μM • B: 25 μM<EC75≤100 μM • C: […]
In the same manner as in Test Example 1, the efflux ability inhibition effect of the test compound on the drug efflux pump was evaluated using the bacterial proliferation ability in the presence of EM or LVFX as an index.

mexB (PA) strain = assay: Combinational effect with antibacterial agent against Pseudomonas aeruginosa (Test Examples 2 and 4): mexB (PA) strain with LVFX, TC or AZT at 1/4 MIC, EC99; type: cell-based; conditions: for EC99, mexB (PA), AZT / EC99, mexB (PA), LVFX: Table 52, Test Example 2, 16 to 20 hours culture, OD595
Summary of the method: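 P. aeruginosa mexB (PA) strain, lacking MexCD-OprJ, MexEF-OprN and MexXY and overexpressing MexAB-OprM, grown 16–20 h in CAMHB (10^4–5 CFU/well) with LVFX, TC or AZT at ¼ MIC plus test compound at 0–800 μM. Growth read as OD595; EC99 is the lowest compound concentration giving ≥99% growth inhibition.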

S-3769 strain = assay: Combinational effect with antibacterial agent against Pseudomonas aeruginosa (Test Examples 2 and 4): S-3769 strain with AMK or GM at 1/4 MIC, EC99; type: cell-based; conditions: S-3769 strain, Test Example 4
Summary of the method: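 P. aeruginosa S-3769 (clinical isolate, MexY overexpressed) grown 16–20 h in CAMHB, 10^4 to 5 CFU/well, with AMK or GM at ¼ MIC plus test compound 0–800 μM. Growth read as OD595; EC99 is the lowest compound concentration giving ≥99% growth inhibition.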

[1] = Table 53, Test Example 3, same manner as Test Example 1
[2] = Table 51, Test Example 1, 16 to 20 hours culture, OD595

N[C@@H](C(=O)N1CCN(Cc2nccc3c2OCCO3)CC1)C1CCN(CCc2cc(Cl)ccc2-c2ccccc2)CC1 [Example 520, Hydrobromide of (R)-2-amino-2-(1-(2-(4-chloro-[1,1-biphenyl]-2-yl)ethyl)piperidin-4-yl)-1-(4-((2,3-dihydro-[1,4]dioxino[2,3-c]pyridin-5-yl)methyl)piperazin-1-yl)ethan-1-one]
EC75, mexY (EC) strain, EM (mexY (EC) strain; [1]): A (12.5 μM<EC75≤25 μM)
EC75, mexY (EC) strain, LVFX (mexY (EC) strain; [1]): A (12.5 μM<EC75≤25 μM)
EC99, combinational effect with AZT, mexB (PA) (mexB (PA) strain; mexB (PA) strain, combined with AZT at 1/4 MIC, Test Example 4): C (100 μM<EC99)
EC99, combinational effect with LVFX, mexB (PA) (mexB (PA) strain; mexB (PA) strain, combined with LVFX at 1/4 MIC, Test Example 4): C (100 μM<EC99)
EC99, combinational effect with TC, mexB (PA) (mexB (PA) strain; mexB (PA) strain, combined with TC at 1/4 MIC, Test Example 4): C (100 μM<EC99)
EC99, combinational effect with AMK, S-3769 strain (S-3769 strain; combined with AMK at 1/4 MIC): B (25 μM<EC99≤100 μM)
EC99, combinational effect with GM, S-3769 strain (S-3769 strain; combined with GM at 1/4 MIC): C (100 μM<EC99)

O=C(CN1CCN(CCc2ccccc2)CC1)N1CCN(Cc2c(O)cccc2Cl)CC1 [Example 229, Hydrochloride of 1-(4-(2-chloro-6-hydroxybenzyl)piperazin-1-yl)-2-(4-phenethylpiperazin-1-yl)ethan-1-one]
EC75, mexY (EC) strain, EM (mexY (EC) strain; [2]): B (25 μM<EC75≤100 μM)
EC75, mexY (EC) strain, LVFX (mexY (EC) strain; [2]): B (25 μM<EC75≤100 μM)
EC99, mexB (PA), AZT (mexB (PA) strain; combined with AZT at 1/4 MIC): B (25 μM<EC99≤100 μM)
EC99, mexB (PA), LVFX (mexB (PA) strain; combined with LVFX at 1/4 MIC): B (25 μM<EC99≤100 μM)

COc1ccccc1CN1CCN(C(=O)CN2CCN(CCc3ccc(F)cc3)CC2)CC1 [Example 277, 2-(4-(4-Fluorophenethyl)piperazin-1-yl)-1-(4-(2-methoxybenzyl)piperazin-1-yl) ethan-1-one and hydrochloride thereof]
EC75, mexY (EC) strain, EM (mexY (EC) strain; [2]): B (25 μM<EC75≤100 μM)
EC75, mexY (EC) strain, LVFX (mexY (EC) strain; [2]): B (25 μM<EC75≤100 μM)
EC99, mexB (PA), AZT (mexB (PA) strain; combined with AZT at 1/4 MIC): B (25 μM<EC99≤100 μM)
EC99, mexB (PA), LVFX (mexB (PA) strain; combined with LVFX at 1/4 MIC): B (25 μM<EC99≤100 μM)

COc1ccccc1CN1CCN(C(=O)CN2CCN(CCc3cccc(Cl)c3)CC2)CC1 [Example 272, 2-(4-(3-chlorophenethyl)piperazin-1-yl)-1-(4-(2-methoxybenzyl)piperazin-1-yl)ethan-1-one]
EC75, mexY (EC) strain, EM (mexY (EC) strain; [2]): B (25 μM<EC75≤100 μM)
EC75, mexY (EC) strain, LVFX (mexY (EC) strain; [2]): B (25 μM<EC75≤100 μM)
EC99, mexB (PA), AZT (mexB (PA) strain; combined with AZT at 1/4 MIC): S (EC99≤12.5 μM)
EC99, mexB (PA), LVFX (mexB (PA) strain; combined with LVFX at 1/4 MIC): S (EC99≤12.5 μM)

O=C(CN1CCN(CCc2ccccc2)CC1)N1CCN(Cc2cccc3ccccc23)CC1 [Example 238]
EC75, mexY (EC) strain, EM (mexY (EC) strain; [2]): B (25 μM<EC75≤100 μM)
EC75, mexY (EC) strain, LVFX (mexY (EC) strain; [2]): B (25 μM<EC75≤100 μM)
EC99, mexB (PA), AZT (mexB (PA) strain; combined with AZT at 1/4 MIC): B (25 μM<EC99≤100 μM)
EC99, mexB (PA), LVFX (mexB (PA) strain; combined with LVFX at 1/4 MIC): B (25 μM<EC99≤100 μM)

COc1ccccc1CN1CCN(C(=O)CN2CCC(C#Cc3ccccc3)CC2)CC1 [Example 405, Hydrochloride of 1-(4-(2-methoxybenzyl)piperazin-1-yl)-2-(4-(phenylethynyl)piperidin-1-yl)ethan-1-one]
EC75, mexY (EC) strain, EM (mexY (EC) strain; [2]): B (25 μM<EC75≤100 μM)
EC75, mexY (EC) strain, LVFX (mexY (EC) strain; [2]): B (25 μM<EC75≤100 μM)
EC99, mexB (PA), AZT (mexB (PA) strain; combined with AZT at 1/4 MIC): B (25 μM<EC99≤100 μM)
EC99, mexB (PA), LVFX (mexB (PA) strain; combined with LVFX at 1/4 MIC): A (12.5 μM<EC99≤25 μM)

COc1ccccc1CN1CCN(C(=O)CN2CCN(CCc3ccoc3)CC2)CC1 [Example 291, 2-(4-(2-(Furan-3-yl)ethyl)piperazin-1-yl)-1-(4-(2-methoxybenzyl)piperazin-1-yl)ethan-1-one and hydrochloride thereof]
EC75, mexY (EC) strain, EM (mexY (EC) strain; [2]): B (25 μM<EC75≤100 μM)

CCOc1cccc(F)c1CN1CCN(C(=O)[C@H](N)C2CCN(CCC3(C)CCCCC3)CC2)CC1 [Example 126, Hydrochloride of (R)-2-amino-1-(4-(2-ethoxy-6-fluorobenzyl)piperazin-1-yl)-2-(1-(2-(1-methylcyclohexyl)ethyl)piperidin-4-yl)ethan-1-one]
EC75, mexY (EC) strain, EM (mexY (EC) strain; [2]): A (12.5 μM<EC75≤25 μM)
EC75, mexY (EC) strain, LVFX (mexY (EC) strain; [2]): A (12.5 μM<EC75≤25 μM)

COc1ccccc1CN1CCN(C(=O)[C@H](NCc2ccccc2)C2CCN(CCc3cccc(Cl)c3)CC2)CC1 [Example 142, hydrochloride of (R)-2-(benzylamino)-2-(1-(3-chlorophenethyl)piperidin-4-yl)-1-(4-(2-methoxybenzyl)piperazin-1-yl)ethan-1-one]
EC75, mexY (EC) strain, EM (mexY (EC) strain; [2]): B (25 μM<EC75≤100 μM)
EC75, mexY (EC) strain, LVFX (mexY (EC) strain; [2]): B (25 μM<EC75≤100 μM)

COc1ccccc1CN1CCN(C(=O)CN2CCC(CCc3ccccc3)(COCc3ccccc3)CC2)CC1 [Example 403, Hydrochloride of 2-(4-((benzyloxy)methyl)-4-phenethylpiperidin-1-yl)-1-(4-(2-methoxybenzyl)piperazin-1-yl)ethan-1-one]
EC75, mexY (EC) strain, LVFX (mexY (EC) strain; [2]): B (25 μM<EC75≤100 μM)
EC99, mexB (PA), AZT (mexB (PA) strain; combined with AZT at 1/4 MIC): S (EC99≤12.5 μM)
EC99, mexB (PA), LVFX (mexB (PA) strain; combined with LVFX at 1/4 MIC): S (EC99≤12.5 μM)

CCOc1cccc(F)c1CN1CCN(C(=O)[C@H](N)C2CCN(CCc3cc(Cl)ccc3-c3ccccc3C#N)CC2)CC1 [Example 64, Hydrobromide of (R)-2′-(2-(4-(1-amino-2-(4-(2-ethoxy-6-fluorobenzyl)piperazin-1-yl)-2-oxoethyl)piperidin-1-yl)ethyl)-4′-chloro-[1,1′-biphenyl]-2-carbonitrile]
EC75, mexY (EC) strain, EM (mexY (EC) strain; [2]): A (12.5 μM<EC75≤25 μM)

CCOc1cccc(F)c1CN1CCN(C(=O)[C@H](N)C2CCN(CCC3CCCC3)CC2)CC1 [Example 41, Hydrobromide of (R)-2-amino-2-(1-(2-cyclopentylethyl)piperidin-4-yl)-1-(4-(2-ethoxy-6-fluorobenzyl)piperazin-1-yl) ethan-1-one]
EC75, mexY (EC) strain, EM (mexY (EC) strain; [2]): A (12.5 μM<EC75≤25 μM)
EC75, mexY (EC) strain, LVFX (mexY (EC) strain; [2]): A (12.5 μM<EC75≤25 μM)

COc1ccccc1CN1CCN(C(=O)CN2CCC(/C=C/c3ccccc3)CC2)CC1 [Example 400, hydrochloride of (E)-1-(4-(2-methoxybenzyl)piperazin-1-yl)-2-(4-styrylpiperidin-1-yl)ethan-1-one]
EC75, mexY (EC) strain, EM (mexY (EC) strain; [2]): B (25 μM<EC75≤100 μM)
EC75, mexY (EC) strain, LVFX (mexY (EC) strain; [2]): B (25 μM<EC75≤100 μM)
EC99, mexB (PA), AZT (mexB (PA) strain; combined with AZT at 1/4 MIC): A (12.5 μM<EC99≤25 μM)
EC99, mexB (PA), LVFX (mexB (PA) strain; combined with LVFX at 1/4 MIC): S (EC99≤12.5 μM)
